# Results: ChEMBL document CHEMBL5360583, “Benzo[j]fluoranthene-Derived Natural Products” (J Nat Prod, 2023)
# How the values were obtained:
# [1] = system: Bacillus subtilis; assay: Antibacterial activity against Bacillus subtilis assessed as zone of inhibition by disc diffusion method; format: functional
# [2] = system: Staphylococcus aureus; assay: Antibacterial activity against Staphylococcus aureus assessed as zone of inhibition; format: functional
# [3] = Antioxidant activity assessed as DPPH radical scavenging activity at 50 uM; format: functional
# [4] = system: Jurkat; assay: Antiproliferative activity against human Jurkat cells assessed as reduction in cell viability measured after 24 hrs by MTT assay; format: functional, cell-based
# [5] = system: Ramos; assay: Antiproliferative activity against human Ramos cells assessed as reduction in cell viability measured after 24 hrs by MTT assay; format: functional, cell-based
# [6] = system: L929; assay: Cytotoxicity against mouse L929 cells assessed as reduction in cell viability; format: functional, cell-based
# [7] = Inhibition of tyrosine kinase (unknown origin); design: species or system Homo sapiens
# [8] = Inhibition of IL-2 production in CD28-stimulated human Jurkat E6.1 cells; format: functional, cell-based
# [9] = system: Splenocyte; assay: Immunosuppressive activity in BALB/c mouse splenocyte assessed as reduction in ConA-induced mouse T-lymphocytes proliferation incubated for 48 hrs by MTT assay; format: functional, cell-based
# [10] = Cytotoxicity against BALB/c mouse Splenocyte assessed as reduction in cell viability incubated for 48 hrs by MTT assay; format: toxicity, cell-based; details: splenocytes
# [11] = system: Micrococcus luteus; assay: Antibacterial activity against Micrococcus luteus assessed as bacterial growth inhibition; format: functional
# [12] = system: Mucor hiemalis; assay: Antifungal activity against Mucor hiemalis assessed as inhibition of fungal growth measured after 18 to 48 hrs by microbroth dilution assay; format: functional; details: time 18-48 hrs
# [13] = system: RAW264.7; assay: Anti-inflammatory activity in mouse RAW264.7 cells assessed as inhibition of NO production; format: functional, cell-based
# [14] = system: Caenorhabditis elegans; assay: Nematicidal activity against Caenorhabditis elegans; format: functional; details: read-out: LD50 (the source's name)
# [15] = system: Yarrowia lipolytica; assay: Antifungal activity against Yarrowia lipolytica assessed as zone of inhibition; format: functional
# [16] = system: Enterococcus faecalis; assay: Antibacterial activity against Enterococcus faecalis assessed as zone of inhibition; format: functional
# [17] = system: SW480; assay: Cytotoxicity against human SW480 cells assessed as reduction in cell growth by MTT assay; format: functional, cell-based
# [18] = system: L929; assay: Cytotoxicity against mouse L929 cells assessed as reduction in cell viability by MTT assay; format: functional, cell-based
# [19] = system: Micrococcus luteus; assay: Antibacterial activity against Micrococcus luteus assessed as reduction in bacterial growth; format: functional
# [20] = target: Hyaluronan-binding protein 2 (Homo sapiens, UniProt Q14520); assay: Inhibition of spermidine-induced human pro-PHBP autoactivation
# Sequence of Hyaluronan-binding protein 2 (Q14520 24-313 limits assumed): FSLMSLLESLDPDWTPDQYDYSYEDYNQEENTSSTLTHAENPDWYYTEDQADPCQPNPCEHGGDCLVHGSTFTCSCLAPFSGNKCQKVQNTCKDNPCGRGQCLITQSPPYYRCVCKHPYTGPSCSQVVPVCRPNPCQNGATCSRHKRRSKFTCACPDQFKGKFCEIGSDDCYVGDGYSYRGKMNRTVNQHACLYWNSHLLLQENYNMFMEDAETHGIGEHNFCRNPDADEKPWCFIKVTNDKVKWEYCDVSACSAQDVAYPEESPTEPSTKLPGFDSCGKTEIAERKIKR
# Sequence of Hyaluronan-binding protein 2 (Q14520 314-560 limits assumed): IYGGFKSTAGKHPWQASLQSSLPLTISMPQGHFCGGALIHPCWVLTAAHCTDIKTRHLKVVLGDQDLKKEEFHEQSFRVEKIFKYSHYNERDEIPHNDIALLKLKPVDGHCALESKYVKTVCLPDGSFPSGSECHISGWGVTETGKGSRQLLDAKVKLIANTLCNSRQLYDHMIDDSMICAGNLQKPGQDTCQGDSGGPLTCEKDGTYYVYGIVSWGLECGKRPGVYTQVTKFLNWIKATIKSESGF
smiles,measurement,setting,value
O=C1C[C@@H]2[C@H]3CCC(=O)c4c(O)ccc(c43)[C@]2(O)c2cccc(O)c21,inhibition zone (IZ),[1],11 mm
same,inhibition zone (IZ),[2],12 mm
O=C1C[C@H]2C(=C3c4c2ccc(O)c4[C@@H](O)C[C@H]3O)c2cccc(O)c21,Activity,[3],1.74%
O=C1C[C@]2(O)C(=C3C=CC(=O)c4c(O)ccc2c43)c2cccc(O)c21,IC50,[4],14.1 µM
same,IC50,[5],6.6 µM
O=C1C(O)=c2c(c3cc(O)c(=O)c4c(O)ccc2c4-3)-c2cccc(O)c21,IC50,[6],7 µM
COC1C(=O)c2c(O)cccc2C2=C3CCC(=O)c4c(O)ccc(c43)C21 (centres undefined),IC50,[7],0.045 µM
same,IC50,[8],2.4 µM
Oc1cccc2c3c(ccc12)-c1ccc(O)c2cccc-3c12,IC50,[9],0.025 mg/L
same,IC50 at 48 h,[10],0.22 mg/L
Oc1cccc2c3c(ccc12)-c1ccc(O)c2c(O)ccc-3c12,MIC,[11],16.7 mg/L
COc1cccc2c3c(ccc12)-c1ccc(O)c2c(OC)ccc-3c12,MIC,[12],4.3 mg/L
COc1cccc2c3c(ccc12)-c1ccc(O)c2c(O)ccc-3c12,MIC,[11],8.3 mg/L
CO[C@H]1C[C@H](O)C2=C3c4cccc(O)c4C(=O)[C@@H](O)[C@@H]3C3=CC=C(O)C1C32 (some centres undefined),IC50,[13],14.4 µM
O=C1c2c3c(cc(O)c2[C@H](O)[C@@H]2O[C@H]12)C1C=CC(O)=C2C(O)=CC=C3C21 (some centres undefined),inhibition zone (IZ),[1],11 mm
same,LC50,[14],50 mg/L
same,inhibition zone (IZ),[15],8 mm
O=C1C[C@@H]2[C@H]3CC[C@@H](O)c4c(O)ccc(c43)[C@]2(O)c2cccc(O)c21,inhibition zone (IZ),[1],10 mm
same,inhibition zone (IZ),[16],10 mm
O=C1C[C@@H]2[C@H]3CC[C@H](O)c4c(O)ccc(c43)[C@]2(O)c2cccc(O)c21,inhibition zone (IZ),[2],10 mm
same,IC50,[17],9.59 µM
same,inhibition zone (IZ),[16],10 mm
O=C1C[C@@H]2[C@@H]3CCC(=O)c4c(O)ccc(c43)[C@]2(O)c2cccc(O)c21,inhibition zone (IZ),[1],10 mm
same,LC50,[14],25 mg/L
same,inhibition zone (IZ),[15],7 mm
CO[C@@H]1[C@H](OC)c2c(O)cccc2C2=C3CCC(=O)c4c(O)ccc(c43)[C@H]21,IC50,[7],0.76 µM
same,IC50,[8],2.5 µM
CO[C@@H]1[C@H](O)c2c(O)cccc2C2=C3CCC(=O)c4c(O)ccc(c43)[C@H]21,IC50,[7],0.06 µM
same,IC50,[8],0.4 µM
O=C1C[C@H]2C(=C3CCC(=O)c4c(O)ccc2c43)c2cccc(O)c21,inhibition zone (IZ),[1],11 mm
same,IC50,[18],10.4 µM
same,LC50,[14],100 mg/L
same,inhibition zone (IZ),[15],9 mm
same,MIC,[19],16.7 mg/L
COC1C(O)c2c(O)cccc2C2=C3CCC(=O)c4c(O)ccc(c43)C21 (centres undefined),IC50,[7],> 5 µM
same,IC50,[8],> 5 µM
O=C1C(O)=c2c(c3ccc(=O)c4c(O)ccc2c4-3)-c2cccc(O)c21,IC50,[20],14 µM
CO[C@H]1C[C@H](O)C2=C3c4cccc(O)c4C(=O)C[C@@H]3c3ccc(O)c1c32 [HYPOXYLONOL B],IC50,[13],21.1 µM
O=C1C[C@H](O)[C@H]2c3c(ccc(O)c31)-c1cc(O)c3c(O)cccc3c12,IC50,[18],1.1 µM
